pIC50: −log10 of the molar value.
Test system: 677734-321-R-J1-PDC complex spheroid viability
Test: Anticancer human tumor 677734-321-R-J1-PDC patient-derived soft tissue sarcoma cell line growth inhibition [POLQ]
Conditions: for pIC50: curve of first compound; for viability, T/C: stronger effect = lower value
Procedure, shortened: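 Patient-derived tumour cells were co-cultured with HUVEC and mesenchymal stem cells as multicellular spheroids at 37 °C. They were treated with POLQ inhibitors (novobiocin, ART-558, RP6685) alone or combined with other agents. Top concentrations were at or near clinical Cmax (otherwise 10 microM; SN-38 at 1 microM), decreasing in half-log steps.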

[1] = second compound 0.0316 µM, first compound 0.00316 µM
[2] = second compound 0.0316 µM, first compound 0.01 µM
[3] = second compound 0.0316 µM, first compound 0.0316 µM
[4] = second compound 0.0316 µM, first compound 0.1 µM
[5] = second compound 0.0316 µM, first compound 0.316 µM
[6] = second compound 0.0316 µM, first compound 1 µM
[7] = second compound 0.1 µM, first compound 0.00316 µM
[8] = second compound 0.1 µM, first compound 0.01 µM
[9] = second compound 0.1 µM, first compound 0.0316 µM
[10] = second compound 0.1 µM, first compound 0.1 µM
[11] = second compound 0.1 µM, first compound 0.316 µM
[12] = second compound 0.1 µM, first compound 1 µM
[13] = second compound 0.316 µM, first compound 0.00316 µM
[14] = second compound 0.316 µM, first compound 0.01 µM
[15] = second compound 0.316 µM, first compound 0.0316 µM
[16] = second compound 0.316 µM, first compound 0.1 µM
[17] = second compound 0.316 µM, first compound 0.316 µM
[18] = second compound 0.316 µM, first compound 1 µM
[19] = second compound 1 µM, first compound 0.00316 µM
[20] = second compound 1 µM, first compound 0.01 µM
[21] = second compound 1 µM, first compound 0.0316 µM
[22] = second compound 1 µM, first compound 0.1 µM
[23] = second compound 1 µM, first compound 0.316 µM
[24] = second compound 1 µM, first compound 1 µM
[25] = second compound 3.16 µM, first compound 0.00316 µM
[26] = second compound 3.16 µM, first compound 0.01 µM
[27] = second compound 3.16 µM, first compound 0.0316 µM
[28] = second compound 3.16 µM, first compound 0.1 µM
[29] = second compound 3.16 µM, first compound 0.316 µM
[30] = second compound 3.16 µM, first compound 1 µM
[31] = second compound 10 µM, first compound 0.00316 µM
[32] = second compound 10 µM, first compound 0.01 µM
[33] = second compound 10 µM, first compound 0.0316 µM
[34] = second compound 10 µM, first compound 0.1 µM
[35] = second compound 10 µM, first compound 0.316 µM
[36] = second compound 10 µM, first compound 1 µM
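Note: spheroids exposed to compounds for one week.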
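Throughout, for viability, T/C: 100% = vehicle DMSO treated spheroids.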

CCc1c2c(nc3ccc(O)cc13)-c1cc3c(c(=O)n1C2)COC(=O)[C@]3(O)CC + Cc1cccc(N(C)C(=O)C2C(O)CCN2c2nc(C)cc(C(F)(F)F)c2C#N)c1
pIC50 (second compound 0.0316 µM): > 8.50 | pIC50 (second compound 0.1 µM): > 8.50 | pIC50 (second compound 0.316 µM): > 8.50 | pIC50 (second compound 1 µM): > 8.50 | pIC50 (second compound 3.16 µM): > 8.50 | pIC50 (second compound 10 µM): > 8.50 | viability, T/C [1]: 34% | viability, T/C [2]: 20.2% | viability, T/C [3]: 5.31% | viability, T/C [4]: 2.32% | viability, T/C [5]: 1.63% | viability, T/C [6]: 1.3% | viability, T/C [7]: 26.2% | viability, T/C [8]: 15.4% | viability, T/C [9]: 5.43% | viability, T/C [10]: 2.52% | viability, T/C [11]: 1.76% | viability, T/C [12]: 2.63% | viability, T/C [13]: 28% | viability, T/C [14]: 18.8% | viability, T/C [15]: 4.71% | viability, T/C [16]: 2.82% | viability, T/C [17]: 1.97% | viability, T/C [18]: 2.54% | viability, T/C [19]: 30.3% | viability, T/C [20]: 15.7% | viability, T/C [21]: 5.16% | viability, T/C [22]: 2.53% | viability, T/C [23]: 1.97% | viability, T/C [24]: 2.5% | viability, T/C [25]: 36.4% | viability, T/C [26]: 13.5% | viability, T/C [27]: 4.68% | viability, T/C [28]: 2.35% | viability, T/C [29]: 2.92% | viability, T/C [30]: 1.89% | viability, T/C [31]: 28.2% | viability, T/C [32]: 15.4% | viability, T/C [33]: 5.22% | viability, T/C [34]: 3.2% | viability, T/C [35]: 3.11% | viability, T/C [36]: 1.34%

COc1cccc(OCCCN)c1-c1cc(Nc2cnc(C#N)cn2)n[nH]1 + Cc1cccc(N(C)C(=O)C2C(O)CCN2c2nc(C)cc(C(F)(F)F)c2C#N)c1
pIC50 (second compound 0.0316 µM): 8.29 | pIC50 (second compound 0.1 µM): 8.26 | pIC50 (second compound 0.316 µM): 8.27 | pIC50 (second compound 1 µM): 8.46 | pIC50 (second compound 3.16 µM): 8.31 | pIC50 (second compound 10 µM): > 8.50 | viability, T/C [1]: 80.6% | viability, T/C [2]: 8.11% | viability, T/C [3]: 6.8% | viability, T/C [4]: 5.31% | viability, T/C [5]: 4.65% | viability, T/C [6]: 4.03% | viability, T/C [7]: 89.8% | viability, T/C [8]: 8.11% | viability, T/C [9]: 6.65% | viability, T/C [10]: 5.48% | viability, T/C [11]: 6.82% | viability, T/C [12]: 4.61% | viability, T/C [13]: 84.1% | viability, T/C [14]: 9.52% | viability, T/C [15]: 6.22% | viability, T/C [16]: 5.29% | viability, T/C [17]: 5.08% | viability, T/C [18]: 4.86% | viability, T/C [19]: 53.9% | viability, T/C [20]: 8.32% | viability, T/C [21]: 6.96% | viability, T/C [22]: 6.49% | viability, T/C [23]: 5.31% | viability, T/C [24]: 4.98% | viability, T/C [25]: 70.3% | viability, T/C [26]: 16.3% | viability, T/C [27]: 7.33% | viability, T/C [28]: 5.44% | viability, T/C [29]: 6.24% | viability, T/C [30]: 4.93% | viability, T/C [31]: 48.1% | viability, T/C [32]: 11.5% | viability, T/C [33]: 7.44% | viability, T/C [34]: 5.3% | viability, T/C [35]: 6.55% | viability, T/C [36]: 4.1%

Source: PubChem BioAssay AID1963842 (Molecular Pharmacology Branch, DTP, NCI, 2024)
